“Also recorded” adds a separate entry of the source. Blank lines part the entries; values can stand above or below the compound they belong to.
Tested on: tripeptidyl peptidase 1 (TPP1)
Assay: TPP1 enzyme activity in MEF lysates
Type: cell-based, mouse
Method: Treatment with AF38469 increases PPT1 and TPP1 enzyme activity in Batten disease mouse embryonic fibroblasts. Since AF38469 increases the expression of lysosomal genes including the PPT1 and TPP1 enzymes, we asked whether AF38469 increases the overall activity levels of these enzymes in cellulo. Wild type (WT) and mutant cells were treated with vehicle or AF38469 (40 nM). Cells were plated on day 0 and dosed with drug-containing media on DIV3 and DIV5. Cells were lysed, and protein quantification and enzyme activity assay were performed on DIV7. Data was analyzed with GraphPad Prism™. Two-way ANOVA. Mean±S.E.M. Tukey's multiple comparisons test. *p<0.05, **p<0.01, ***p<0.001, ****p<0.0001. Palmitoyl-protein thioesterase 1 (PPT1) is the lysosomal enzyme mutated in CLN1 disease and removes thioester-linked fatty acyl groups from modified cysteines of substrate proteins. Tripeptidyl peptidase 1 (TPP1) is the lysosomal enzyme mutated in CLN2 disease and has broad substrate specificity against various proteins degraded in the lysosome after cleavage.
Since LM11A-31 stimulates the nuclear translocation of transcription factors responsible for lysosome biogenesis, we asked whether LM11A-31 increases the overall activity levels of lysosomalenzymes in cellulo. […] Wild type (WT) and mutant cells were treated with vehicle or LM11A-31 (100 nM). Cells were plated on day 0 and dosed with drug-containing media on DIV3 and DIV5. Cells were lysed, and protein quantification and enzyme activity assay were performed on DIV7. Data was analyzed with GraphPad Prism™. Two-way ANOVA. Mean±S.E.M. Tukey's multiple comparisons test. *p<0.05, **p<0.01, ***p<0.001, ****p<0.0001. […] Palmitoyl-protein thioesterase 1 (PPT1) is the lysosomal enzyme mutated in CLN1 disease and removes thioester-linked fatty acyl groups from modified cysteines of substrate proteins. Tripeptidyl peptidase 1 (TPP1) is the lysosomal enzyme mutated in CLN2 disease and has broad substrate specificity against various proteins degraded in the lysosome after cleavage. Mutations in the CTSD gene, encoding cathepsin d, a lysosomal protease that is involved in the recycling and degradation, is a known cause of Cln10 disease.
Since semaglutide improves lysosomal health and function across diverse cell models of lysosomal storage disorder, we asked whether the function of the lysosomes was improved. […] Additionally, a combination of semaglutide and AF38469, a sortilin inhibitor, increased overall levels of activity for both enzymes in cell lysates. Wild type (WT) and mutant cells were treated with vehicle or semaglutide (100 nM) or AF38469 (40 nM) and semaglutide (100 nM). Cells were plated on in vitro day 0 and dosed with drug-containing media on DIV3 and DIV5. Cells were lysed, and protein quantification and enzyme activity assay were performed on DIV7. Data was analyzed with GraphPad Prism™. Two-way ANOVA. Mean±S.E.M. Tukey's multiple comparisons test. *p<0.05, **p<0.01, ***p<0.001, ****p<0.0001. […] (FIG. 20A). […] Levels of TPP1 enzyme activity in Cln2^R207X were not altered by treatment of semaglutide, as was expected given the lack of a functional TPP1 protein in this model (FIG. 20B). […] Levels of TPP1 enzyme activity in Cln2^R207X were not altered by treatment of AF38469 and semaglutide, as was expected given the lack of a functional TPP1 protein in this model. n=5 wells per treatment (FIG. 20D).

Compound: Cc1cccc(NC(=O)c2ccc(C(F)(F)F)cc2C(=O)O)n1 [AF38469, 2-((6-methylpyridin-2-yl)carbamoyl)-5-(trifluoromethyl)benzoic acid]
- TPP1 enzyme activity (AF38469 40 nM, Cln2^R207X MEFs): not altered
- TPP1 enzyme activity (AF38469 40 nM, wild type, Cln3^Δex7/8, Cln6^nclf, Cln11^−/− MEFs, DIV7): increased the overall levels of activity; also recorded: significantly increased

- TPP1 enzyme activity (LM11A-31 100 nM, wild type and Cln3^Δex7/8 MEFs, DIV7): significantly increased
Compound: CC[C@H](C)[C@H](N)C(=O)NCCN1CCOCC1 [LM11A-31, N-[2-(morpholin-4-yl)ethyl]-L-isoleucinamide]

- TPP1 enzyme activity (semaglutide 100 nM, Cln2^R207X MEFs): not altered
- TPP1 enzyme activity (semaglutide 100 nM, wild type, Cln3^Δex7/8 MEFs, DIV7): significantly increased
Compound: semaglutide
